Assay results: PubChem BioAssay AID248 (DTP/NCI, 2004)
Where “and” joins values, the source holds several entries; their conditions need not be identical. Equal entries are not always repeated. Inconclusive results and toxic doses are left out. Cut-off read from the data, not from the text of the source: active = T/C of 150% or more; inactive = T/C below 125%.

Tested on: L1210 leukemia ip in BDF1 mice, survival T/C
Assay: NCI In Vivo Anticancer Drug Screen. Data for tumor model L1210 Leukemia (intraperitoneal) in B6D2F1 (BDF1) mice
Details: endpoint: mean survival time, higher = longer survival
Procedure, shortened: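 Tumor was transplanted into mice, which were then dosed with test compound or vehicle alone. Survival was recorded for each group, and the treated figure was expressed relative to the control figure.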

[1] = dose: 100.0 mg/kg/injection, schedule: Q01DX009 (ip), vehicle: Klucel (hydroxypropylcellulose) (HPC)
[2] = dose: 100.0 mg/kg/injection, schedule: Q04DX003 (ip), vehicle: Klucel (hydroxypropylcellulose) (HPC)
[3] = dose: 200.0 mg/kg/injection, schedule: Q01DX009 (ip), vehicle: Klucel (hydroxypropylcellulose) (HPC)
[4] = dose: 200.0 mg/kg/injection, schedule: Q04DX003 (ip), vehicle: Klucel (hydroxypropylcellulose) (HPC)
[5] = dose: 400.0 mg/kg/injection, schedule: Q01DX009 (ip), vehicle: Klucel (hydroxypropylcellulose) (HPC)
[6] = dose: 100.0 mg/kg/injection, schedule: Q01DX001 (ip), vehicle: carboxymethylcellulose (CMC)
[7] = dose: 200.0 mg/kg/injection, schedule: Q01DX001 (ip), vehicle: carboxymethylcellulose (CMC)
[8] = dose: 400.0 mg/kg/injection, schedule: Q01DX001 (ip), vehicle: carboxymethylcellulose (CMC)
[9] = dose: 100.0 mg/kg/injection, schedule: Q01DX009 (ip), vehicle: saline
[10] = dose: 100.0 mg/kg/injection, schedule: Q04DX003 (ip), vehicle: saline
[11] = dose: 200.0 mg/kg/injection, schedule: Q04DX003 (ip), vehicle: saline
[12] = dose: 400.0 mg/kg/injection, schedule: Q04DX003 (ip), vehicle: saline
[13] = dose: 100.0 mg/kg/injection, schedule: Q04DX002 (ip), vehicle: Klucel (hydroxypropylcellulose) (HPC)
[14] = dose: 50.0 mg/kg/injection, schedule: Q04DX003 (ip), vehicle: saline
[15] = dose: 50.0 mg/kg/injection, schedule: Q01DX009 (ip), vehicle: Klucel (hydroxypropylcellulose) (HPC)
[16] = dose: 200.0 mg/kg/injection, schedule: Q04DX002 (ip), vehicle: Klucel (hydroxypropylcellulose) (HPC)
[17] = dose: 400.0 mg/kg/injection, schedule: Q04DX002 (ip), vehicle: Klucel (hydroxypropylcellulose) (HPC)

Measured: T/C

Nc1nc(N)nc(-c2ccc(-n3nnc4ccccc4c3=O)cc2)n1
inactive: [1] 90 % of control | [2] 96 % of control | [3] 93 % of control | [4] 96 % of control | [5] 90 % of control | dose: 400.0 mg/kg/injection, schedule: Q04DX003 (ip), vehicle: Klucel (hydroxypropylcellulose) (HPC) 91 % of control

CCCCCCCCCC(=O)N(C(C)C)C(C)C
inactive: [6] 100 % of control | dose: 100.0 mg/kg/injection, schedule: Q01DX009 (ip), vehicle: carboxymethylcellulose (CMC) 96 % of control and 106 % of control | dose: 100.0 mg/kg/injection, schedule: Q04DX003 (ip), vehicle: carboxymethylcellulose (CMC) 93 % of control | [7] 94 % of control | dose: 200.0 mg/kg/injection, schedule: Q01DX009 (ip), vehicle: carboxymethylcellulose (CMC) 94 % of control and 100 % of control | dose: 200.0 mg/kg/injection, schedule: Q04DX003 (ip), vehicle: carboxymethylcellulose (CMC) 95 % of control | [8] 96 % of control | dose: 400.0 mg/kg/injection, schedule: Q01DX009 (ip), vehicle: carboxymethylcellulose (CMC) 95 % of control | dose: 400.0 mg/kg/injection, schedule: Q04DX003 (ip), vehicle: carboxymethylcellulose (CMC) 92 % of control

CCn1c(O)c(C=N)c(=O)n(CC)c1=O
inactive: [9] 95 % of control | [10] 106 % of control | [11] 93 % of control | [12] 113 % of control

CN(c1ccccc1)c1cc(N)nc(N)n1
inactive: dose: 6.0 mg/kg/injection, schedule: Q01DX Z (ip), vehicle: methylcellulose (MC) 92 % of control

CCCCNC(=O)C1CCCC(C(=O)NCCCC)C1 (stereo not given)
inactive: dose: 75.0 mg/kg/injection, schedule: Q01DX009 (ip), vehicle: saline 96 % of control | dose: 150.0 mg/kg/injection, schedule: Q01DX009 (ip), vehicle: saline 102 % of control | dose: 300.0 mg/kg/injection, schedule: Q01DX009 (ip), vehicle: saline 87 % of control

[B-][N+]12CC[N+]([B-])(CC1)CC2
inactive: dose: 0.06 mg/kg/injection, schedule: Q01DX009 (ip), vehicle: saline sonified 98 % of control | dose: 0.06 mg/kg/injection, schedule: Q04DX003 (ip), vehicle: saline sonified 113 % of control | dose: 0.13 mg/kg/injection, schedule: Q01DX009 (ip), vehicle: saline sonified 96 % of control | dose: 0.13 mg/kg/injection, schedule: Q04DX003 (ip), vehicle: saline sonified 96 % of control | dose: 0.25 mg/kg/injection, schedule: Q01DX009 (ip), vehicle: saline sonified 100 % of control | dose: 0.25 mg/kg/injection, schedule: Q04DX003 (ip), vehicle: saline sonified 103 % of control

CCC(=O)NC1Cc2cc(C)cc(C)c21 (stereo not given)
inactive: dose: 25.0 mg/kg/injection, schedule: Q04DX002 (ip), vehicle: Klucel (hydroxypropylcellulose) (HPC) 113 % of control | dose: 50.0 mg/kg/injection, schedule: Q04DX002 (ip), vehicle: Klucel (hydroxypropylcellulose) (HPC) 92 % of control | [13] 100 % of control

[Cl][Pt+2][Cl].[NH-]C1CCCCC1.[NH-]C1CCCCC1
inactive: dose: 25.0 mg/kg/injection, schedule: Q04DX003 (ip), vehicle: saline 100 % of control | dose: 40.0 mg/kg/injection, schedule: Q04DX003 (ip), vehicle: Klucel (hydroxypropylcellulose) (HPC) 103 % of control | [14] 110 % of control | dose: 80.0 mg/kg/injection, schedule: Q04DX003 (ip), vehicle: Klucel (hydroxypropylcellulose) (HPC) 103 % of control | dose: 100.0 mg/kg/injection, schedule: Q04DX002 (ip), vehicle: saline with Tween-80 94 % of control | [10] 103 % of control | dose: 160.0 mg/kg/injection, schedule: Q04DX003 (ip), vehicle: Klucel (hydroxypropylcellulose) (HPC) 101 % of control | dose: 200.0 mg/kg/injection, schedule: Q04DX002 (ip), vehicle: saline with Tween-80 117 % of control | [11] 108 % of control | dose: 320.0 mg/kg/injection, schedule: Q04DX003 (ip), vehicle: Klucel (hydroxypropylcellulose) (HPC) 106 % of control | dose: 400.0 mg/kg/injection, schedule: Q04DX002 (ip), vehicle: saline with Tween-80 102 % of control | [12] 108 % of control | dose: 640.0 mg/kg/injection, schedule: Q04DX003 (ip), vehicle: Klucel (hydroxypropylcellulose) (HPC) 102 % of control

Cc1cc([N+](=O)[O-])cc([N+](=O)[O-])c1Cl
inactive: [15] 103 % of control | [1] 100 % of control | [2] 98 % of control | [4] 103 % of control

CC(c1ccccc1)S(=O)(=O)c1ccccc1 (stereo not given)
inactive: dose: 100.0 mg/kg/injection, schedule: Q01DX001 (ip), vehicle: saline 102 % of control | [9] 95 % of control | [10] 97 % of control | dose: 200.0 mg/kg/injection, schedule: Q01DX001 (ip), vehicle: saline 101 % of control | dose: 200.0 mg/kg/injection, schedule: Q01DX009 (ip), vehicle: saline 101 % of control | [11] 95 % of control | dose: 400.0 mg/kg/injection, schedule: Q01DX001 (ip), vehicle: saline 95 % of control | dose: 400.0 mg/kg/injection, schedule: Q01DX009 (ip), vehicle: saline 97 % of control | [12] 95 % of control

Cn1cccc1/C=N/NC(N)=O
inactive: [13] 104 % of control | [16] 104 % of control | [17] 98 % of control

CC(=O)OC(c1ccccc1)C(C)C (stereo not given)
inactive: dose: 100.0 mg/kg/injection, schedule: Q04DX002 (ip), vehicle: saline 107 % of control | dose: 200.0 mg/kg/injection, schedule: Q04DX002 (ip), vehicle: saline 96 % of control | dose: 400.0 mg/kg/injection, schedule: Q04DX002 (ip), vehicle: saline 103 % of control

Cc1cc(C(=O)NNCc2ccccc2)no1
inactive: dose: 12.5 mg/kg/injection, schedule: Q01DX009 (ip), vehicle: Klucel (hydroxypropylcellulose) (HPC) 102 % of control | dose: 25.0 mg/kg/injection, schedule: Q01DX009 (ip), vehicle: Klucel (hydroxypropylcellulose) (HPC) 96 % of control | [15] 97 % of control

CCC1([N+](=O)[O-])COP(=O)(N2CC2C)OC1 (stereo not given)
inactive: [6] 98 % of control | [7] 96 % of control | [8] 98 % of control

CCCCCCCCCCCCCCCCOc1ccc(C(=O)CC(=O)OC)cc1
inactive: [1] 93 % of control | dose: 100.0 mg/kg/injection, schedule: Q04DX003 (ip), vehicle: other 94 % of control | [3] 92 % of control | dose: 200.0 mg/kg/injection, schedule: Q04DX003 (ip), vehicle: other 101 % of control | [5] 92 % of control | dose: 400.0 mg/kg/injection, schedule: Q04DX003 (ip), vehicle: other 94 % of control

COc1coc(CO)cc1=O
inactive: dose: 50.0 mg/kg/injection, schedule: Q01DX009 (ip), vehicle: saline with Tween-80 94 % of control | dose: 100.0 mg/kg/injection, schedule: Q01DX009 (ip), vehicle: saline with Tween-80 97 % of control

CN1CCN(CCCN2C(c3ccccc3)C2c2ccccc2)CC1 (stereo not given)
inactive: [14] 101 % of control | [10] 93 % of control | [11] 93 % of control

CN(C)N=Nc1cn(C)c(=O)n(C)c1=O
inactive: dose: 150.0 mg/kg/injection, schedule: Q04DX003 (ip), vehicle: water 106 % of control

O=C(NSNc1ccccc1)c1ccccc1
inactive: [13] 110 % of control | [16] 103 % of control | [17] 100 % of control
